{"source": "ChEMBL document CHEMBL4477246", "about": "“New small molecule inhibitors of histone methyl transferase DOT1L with a nitrile as a non-traditional replacement for heavy halogen atoms” (Bioorg Med Chem Lett, 2016)", "key": {"[1]": {"target": "T1, Histone-lysine N-methyltransferase, H3 lysine-79 specific (Homo sapiens, UniProt Q8TEK3)", "assay": "Inhibition of DOT1L (unknown origin) using chicken nucleosome as substrate in presence of [3H]SAM incubated for 1 hr by TopCount method; call rule not given here"}, "[2]": {"target": "DNA (cytosine-5)-methyltransferase 1 (Homo sapiens, UniProt P26358)", "sequence (P26358 whole entry)": "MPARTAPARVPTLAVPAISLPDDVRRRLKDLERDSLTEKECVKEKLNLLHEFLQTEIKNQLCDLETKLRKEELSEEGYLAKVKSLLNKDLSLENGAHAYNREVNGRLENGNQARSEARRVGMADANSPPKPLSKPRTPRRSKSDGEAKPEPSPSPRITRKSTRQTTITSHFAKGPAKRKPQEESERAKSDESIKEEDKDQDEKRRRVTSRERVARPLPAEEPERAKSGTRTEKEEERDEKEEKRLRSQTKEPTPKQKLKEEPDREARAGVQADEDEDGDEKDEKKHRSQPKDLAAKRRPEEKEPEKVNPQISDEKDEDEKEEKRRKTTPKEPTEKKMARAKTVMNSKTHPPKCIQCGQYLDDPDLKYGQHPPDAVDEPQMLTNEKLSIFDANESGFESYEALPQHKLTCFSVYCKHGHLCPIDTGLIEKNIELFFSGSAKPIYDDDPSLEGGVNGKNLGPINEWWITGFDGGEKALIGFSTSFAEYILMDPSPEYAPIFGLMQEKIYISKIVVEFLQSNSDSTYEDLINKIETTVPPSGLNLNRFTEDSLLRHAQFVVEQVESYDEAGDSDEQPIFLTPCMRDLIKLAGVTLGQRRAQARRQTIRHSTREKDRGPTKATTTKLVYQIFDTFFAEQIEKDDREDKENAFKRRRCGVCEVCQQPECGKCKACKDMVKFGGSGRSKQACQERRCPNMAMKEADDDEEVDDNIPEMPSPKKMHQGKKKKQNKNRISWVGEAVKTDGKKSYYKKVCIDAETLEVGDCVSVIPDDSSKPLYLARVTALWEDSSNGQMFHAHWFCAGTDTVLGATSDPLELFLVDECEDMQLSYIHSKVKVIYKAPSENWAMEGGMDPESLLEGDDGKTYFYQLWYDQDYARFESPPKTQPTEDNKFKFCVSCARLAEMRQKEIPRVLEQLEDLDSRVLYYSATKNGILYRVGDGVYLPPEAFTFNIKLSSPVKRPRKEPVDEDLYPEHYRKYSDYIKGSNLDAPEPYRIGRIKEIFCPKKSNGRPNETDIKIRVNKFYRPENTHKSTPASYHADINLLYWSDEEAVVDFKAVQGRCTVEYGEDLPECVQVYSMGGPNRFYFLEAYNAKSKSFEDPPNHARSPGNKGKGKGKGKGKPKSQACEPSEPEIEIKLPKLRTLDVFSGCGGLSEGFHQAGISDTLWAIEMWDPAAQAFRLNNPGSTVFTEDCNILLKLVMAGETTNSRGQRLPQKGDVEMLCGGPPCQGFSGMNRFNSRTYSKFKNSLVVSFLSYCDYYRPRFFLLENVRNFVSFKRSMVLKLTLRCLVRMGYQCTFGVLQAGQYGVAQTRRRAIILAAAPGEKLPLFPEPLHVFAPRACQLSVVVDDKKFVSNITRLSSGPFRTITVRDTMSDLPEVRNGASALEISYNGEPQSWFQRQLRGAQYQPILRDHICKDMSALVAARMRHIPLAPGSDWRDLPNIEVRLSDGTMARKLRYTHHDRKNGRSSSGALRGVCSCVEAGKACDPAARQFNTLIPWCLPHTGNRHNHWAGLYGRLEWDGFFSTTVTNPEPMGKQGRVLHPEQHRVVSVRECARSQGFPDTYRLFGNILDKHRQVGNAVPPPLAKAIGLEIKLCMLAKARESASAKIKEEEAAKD", "assay": "Inhibition of DNMT1 (unknown origin)"}, "[3]": {"target": "T2, Histone-lysine N-methyltransferase SETD7 (Homo sapiens, UniProt Q8WTS6)", "T2 sequence (Q8WTS6 whole entry)": "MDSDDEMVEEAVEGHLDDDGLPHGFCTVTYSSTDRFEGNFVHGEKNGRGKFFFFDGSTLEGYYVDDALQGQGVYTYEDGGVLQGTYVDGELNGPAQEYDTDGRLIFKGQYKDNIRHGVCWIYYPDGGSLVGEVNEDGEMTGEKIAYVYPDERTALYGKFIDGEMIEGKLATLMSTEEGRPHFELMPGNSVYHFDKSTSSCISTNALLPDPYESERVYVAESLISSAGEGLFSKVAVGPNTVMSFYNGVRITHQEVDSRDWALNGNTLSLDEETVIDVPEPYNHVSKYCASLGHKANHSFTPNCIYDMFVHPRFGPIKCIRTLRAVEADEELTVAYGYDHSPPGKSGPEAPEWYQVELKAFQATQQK", "assay": "Inhibition of SETD7 (unknown origin)"}, "[4]": {"target": "Protein arginine N-methyltransferase 5 (Homo sapiens, UniProt O14744)", "sequence (O14744 whole entry)": "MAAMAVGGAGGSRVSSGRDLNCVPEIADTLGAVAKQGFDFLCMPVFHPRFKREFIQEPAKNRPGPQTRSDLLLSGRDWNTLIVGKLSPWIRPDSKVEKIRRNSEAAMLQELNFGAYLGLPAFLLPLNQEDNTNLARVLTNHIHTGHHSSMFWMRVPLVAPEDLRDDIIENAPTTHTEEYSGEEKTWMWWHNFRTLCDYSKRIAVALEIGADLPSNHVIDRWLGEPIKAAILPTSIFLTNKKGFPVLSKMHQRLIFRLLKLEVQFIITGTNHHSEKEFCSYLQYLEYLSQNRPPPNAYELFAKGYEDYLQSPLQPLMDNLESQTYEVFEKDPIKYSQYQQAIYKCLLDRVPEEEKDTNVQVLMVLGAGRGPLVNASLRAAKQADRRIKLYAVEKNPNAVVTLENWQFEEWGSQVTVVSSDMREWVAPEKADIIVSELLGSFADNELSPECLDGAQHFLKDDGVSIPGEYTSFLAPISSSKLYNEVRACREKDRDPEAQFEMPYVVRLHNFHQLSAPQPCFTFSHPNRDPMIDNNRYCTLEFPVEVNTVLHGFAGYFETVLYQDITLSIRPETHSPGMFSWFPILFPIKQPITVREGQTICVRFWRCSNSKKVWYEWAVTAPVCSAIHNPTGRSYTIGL", "assay": "Inhibition of PRMT5 (unknown origin)"}, "[5]": {"target": "Protein arginine N-methyltransferase 3 (Homo sapiens, UniProt O60678)", "sequence (O60678 whole entry)": "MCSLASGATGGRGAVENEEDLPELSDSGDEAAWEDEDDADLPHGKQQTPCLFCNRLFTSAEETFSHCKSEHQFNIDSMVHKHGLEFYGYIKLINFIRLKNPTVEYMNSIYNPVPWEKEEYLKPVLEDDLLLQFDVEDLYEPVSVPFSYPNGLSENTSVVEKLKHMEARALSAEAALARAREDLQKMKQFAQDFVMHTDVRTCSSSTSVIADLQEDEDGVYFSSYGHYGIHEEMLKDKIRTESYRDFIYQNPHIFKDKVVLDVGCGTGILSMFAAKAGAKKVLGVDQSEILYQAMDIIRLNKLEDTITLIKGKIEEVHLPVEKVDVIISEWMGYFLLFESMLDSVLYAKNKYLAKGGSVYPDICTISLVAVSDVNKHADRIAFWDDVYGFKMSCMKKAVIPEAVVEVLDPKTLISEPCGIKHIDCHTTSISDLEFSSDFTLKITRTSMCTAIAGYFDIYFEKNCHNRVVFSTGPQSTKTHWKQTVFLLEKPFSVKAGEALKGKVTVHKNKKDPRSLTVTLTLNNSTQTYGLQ", "assay": "Inhibition of PRMT3 (unknown origin)"}, "[6]": {"target": "T3, Histone-lysine N-methyltransferase EHMT2 (Homo sapiens, UniProt Q96KQ7)", "T3 sequence (Q96KQ7 whole entry)": "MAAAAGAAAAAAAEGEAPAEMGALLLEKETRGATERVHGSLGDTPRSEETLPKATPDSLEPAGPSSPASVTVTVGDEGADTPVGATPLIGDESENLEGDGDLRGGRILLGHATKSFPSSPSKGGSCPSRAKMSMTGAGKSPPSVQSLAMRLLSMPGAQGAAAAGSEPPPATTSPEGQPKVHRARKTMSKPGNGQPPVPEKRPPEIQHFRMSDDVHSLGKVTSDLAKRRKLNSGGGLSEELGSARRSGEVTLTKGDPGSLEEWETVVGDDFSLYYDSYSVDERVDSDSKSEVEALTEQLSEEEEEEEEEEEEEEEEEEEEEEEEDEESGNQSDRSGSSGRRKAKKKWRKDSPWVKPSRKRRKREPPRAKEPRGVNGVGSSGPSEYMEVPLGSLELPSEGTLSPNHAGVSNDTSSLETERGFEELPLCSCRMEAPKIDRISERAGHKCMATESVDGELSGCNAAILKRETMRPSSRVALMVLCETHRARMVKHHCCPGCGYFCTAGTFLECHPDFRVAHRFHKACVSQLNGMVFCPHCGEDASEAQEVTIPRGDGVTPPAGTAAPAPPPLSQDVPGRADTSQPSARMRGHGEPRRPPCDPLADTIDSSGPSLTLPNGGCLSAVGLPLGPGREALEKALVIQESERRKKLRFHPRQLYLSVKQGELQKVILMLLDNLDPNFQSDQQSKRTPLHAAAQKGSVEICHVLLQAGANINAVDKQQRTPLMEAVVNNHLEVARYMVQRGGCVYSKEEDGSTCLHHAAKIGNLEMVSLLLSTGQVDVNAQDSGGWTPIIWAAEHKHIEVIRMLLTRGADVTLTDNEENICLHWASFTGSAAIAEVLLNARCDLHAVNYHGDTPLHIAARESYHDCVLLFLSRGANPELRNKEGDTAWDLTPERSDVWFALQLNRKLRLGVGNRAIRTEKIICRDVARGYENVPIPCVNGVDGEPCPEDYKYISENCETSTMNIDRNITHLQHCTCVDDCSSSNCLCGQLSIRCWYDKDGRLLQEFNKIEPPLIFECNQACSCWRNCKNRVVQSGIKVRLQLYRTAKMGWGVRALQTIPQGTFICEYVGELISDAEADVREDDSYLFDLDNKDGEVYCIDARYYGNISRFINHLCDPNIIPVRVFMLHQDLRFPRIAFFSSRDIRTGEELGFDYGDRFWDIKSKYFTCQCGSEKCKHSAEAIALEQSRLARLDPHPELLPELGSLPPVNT", "assay": "Inhibition of G9a (unknown origin)"}, "[7]": {"target": "Histone-lysine N-methyltransferase EZH2 (Homo sapiens, UniProt Q15910)", "sequence (Q15910 whole entry)": "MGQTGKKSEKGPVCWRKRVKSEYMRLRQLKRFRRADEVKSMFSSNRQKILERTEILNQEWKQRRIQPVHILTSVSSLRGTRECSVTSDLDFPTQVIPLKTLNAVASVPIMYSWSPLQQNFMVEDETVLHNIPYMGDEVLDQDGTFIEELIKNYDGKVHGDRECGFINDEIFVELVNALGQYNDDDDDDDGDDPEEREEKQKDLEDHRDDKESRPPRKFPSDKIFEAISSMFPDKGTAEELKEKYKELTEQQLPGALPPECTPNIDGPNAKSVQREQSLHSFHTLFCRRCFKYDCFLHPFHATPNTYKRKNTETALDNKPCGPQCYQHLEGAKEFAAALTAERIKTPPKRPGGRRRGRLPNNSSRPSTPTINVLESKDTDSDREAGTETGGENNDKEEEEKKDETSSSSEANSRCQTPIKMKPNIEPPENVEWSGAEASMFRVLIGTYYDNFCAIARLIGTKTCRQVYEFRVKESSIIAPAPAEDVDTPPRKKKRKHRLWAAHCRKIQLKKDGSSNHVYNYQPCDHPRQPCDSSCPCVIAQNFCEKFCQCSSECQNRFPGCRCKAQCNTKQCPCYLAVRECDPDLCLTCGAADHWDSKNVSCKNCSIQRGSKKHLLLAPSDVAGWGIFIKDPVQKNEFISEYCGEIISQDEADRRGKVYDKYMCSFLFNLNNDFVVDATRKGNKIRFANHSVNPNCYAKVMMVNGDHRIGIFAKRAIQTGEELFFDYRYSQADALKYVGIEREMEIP", "assay": "Inhibition of EZH2 (unknown origin)"}, "[8]": {"target": "Histone-lysine N-methyltransferase SUV39H2 (Homo sapiens, UniProt Q9H5I1)", "sequence (Q9H5I1 whole entry)": "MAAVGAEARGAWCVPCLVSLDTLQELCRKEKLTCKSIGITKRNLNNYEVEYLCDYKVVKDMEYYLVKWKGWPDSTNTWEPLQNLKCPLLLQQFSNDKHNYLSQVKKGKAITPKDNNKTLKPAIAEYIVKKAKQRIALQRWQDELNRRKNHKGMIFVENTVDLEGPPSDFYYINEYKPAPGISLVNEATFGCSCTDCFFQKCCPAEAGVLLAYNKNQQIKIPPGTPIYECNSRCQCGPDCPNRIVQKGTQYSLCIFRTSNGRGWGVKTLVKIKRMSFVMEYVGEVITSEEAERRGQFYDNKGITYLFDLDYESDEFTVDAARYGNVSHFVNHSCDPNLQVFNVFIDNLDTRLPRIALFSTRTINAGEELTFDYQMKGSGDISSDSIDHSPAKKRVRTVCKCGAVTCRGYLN", "assay": "Inhibition of SUV39H2 (unknown origin)"}, "[9]": {"target": "T1, Histone-lysine N-methyltransferase, H3 lysine-79 specific", "assay": "Inhibition of DOT1L (unknown origin) at 250 uM using chicken nucleosome as substrate in presence of [3H]SAM incubated for 1 hr by TopCount method"}}, "data": [{"molecule": "Nc1ncnc2c1c(-c1ncco1)cn2[C@@H]1O[C@H](CO)[C@@H](O)[C@H]1O", "values": [{"measurement": "IC50", "setting": "[1]", "result": 43, "unit": "µM"}]}, {"molecule": "C#Cc1cn([C@@H]2O[C@H](CO)[C@@H](O)[C@H]2O)c2ncnc(N)c12", "values": [{"measurement": "IC50", "setting": "[1]", "result": 41, "unit": "µM"}]}, {"molecule": "N#Cc1cn([C@@H]2O[C@H](CSCC[C@H](N)C(=O)O)[C@@H](O)[C@H]2O)c2ncnc(N)c12", "values": [{"measurement": "IC50", "setting": "[2]", "result": 0.15, "unit": "µM"}, {"measurement": "IC50", "setting": "[3]", "result": "Not Active"}, {"measurement": "IC50", "setting": "[4]", "result": 2.4, "unit": "µM"}, {"measurement": "IC50", "setting": "[5]", "result": 0.87, "unit": "µM"}, {"measurement": "IC50", "setting": "[6]", "result": 99, "unit": "µM"}, {"measurement": "IC50", "setting": "[7]", "result": "Not Active"}, {"measurement": "IC50", "setting": "[8]", "result": "Not Active"}]}, {"molecule": "N#Cc1c(Br)n([C@@H]2O[C@H](CO)[C@@H](O)[C@H]2O)c2ncnc(N)c12", "values": [{"measurement": "IC50", "setting": "[1]", "result": 200, "unit": "µM"}]}, {"molecule": "N#Cc1cn([C@@H]2O[C@H](CO)[C@@H](O)[C@H]2O)c2ncnc(N)c12", "note": "[TOYOCAMYCIN]", "values": [{"measurement": "IC50", "setting": "[1]", "result": 44, "unit": "µM"}]}, {"molecule": "Nc1ncnc2c1ncn2[C@@H]1O[C@H](CSCC[C@H](N)C(=O)O)[C@@H](O)[C@H]1O", "note": "[S-ADENOSYLHOMOCYSTEINE]", "values": [{"measurement": "IC50", "setting": "[3]; read-out: IC50", "result": 47, "unit": "µM"}, {"measurement": "IC50", "setting": "[5]", "result": 2, "unit": "µM"}, {"measurement": "IC50", "setting": "[8]; read-out: IC50", "result": 22, "unit": "µM"}]}, {"molecule": "Nc1ncnc2c1c(F)cn2[C@@H]1O[C@H](CO)[C@@H](O)[C@H]1O", "values": [{"measurement": "IC50", "setting": "[1]", "result": 200, "unit": "µM"}]}, {"molecule": "NC(=O)c1cn([C@@H]2O[C@H](CO)[C@@H](O)[C@H]2O)c2ncnc(N)c12", "note": "[SANGIVAMYCIN]", "values": [{"measurement": "IC50", "setting": "[1]", "result": 26, "unit": "µM"}]}, {"molecule": "Nc1ncnc2c1c(I)nn2[C@@H]1O[C@H](CO)[C@@H](O)[C@H]1O", "values": [{"measurement": "IC50", "setting": "[1]", "result": 22, "unit": "µM"}]}, {"molecule": "COc1ccc(Cc2cn([C@@H]3O[C@H](CO)[C@@H](O)[C@H]3O)c3ncnc(N)c23)cc1", "values": [{"measurement": "inhibition", "setting": "[9]", "result": 42, "unit": "%"}]}]}
